In PMC6273209, “Evaluation of the Enantiomer Specific Biokinetics and Radiation Doses of [^18F]Fluspidine—A New Tracer in Clinical Translation for Imaging of σ1 Receptors” (Molecules, 2016):

Key:
σ1 receptors = system: σ1 receptors; parameters: method as in PMID 25071097; details: σ1-rich areas of the porcine brain; cited from earlier work
[1] = Human dosimetry estimation from ex vivo biodistribution (organ harvesting method); assay type: in vivo, CD-1 mice; details: for OD Adrenals / OD Brain / OD Breasts / OD Gallbladder Wall / OD Heart Wall / OD Kidneys / OD LLI Wall / OD Liver / OD Lungs / OD Muscle / OD Osteogenic Cells / OD Ovaries / OD Pancreas / OD Red Marrow / OD Skin / OD Small Intestine / OD Spleen / OD Stomach Wall / OD Testes / OD Thymus / OD Thyroid / OD Total Body / OD ULI Wall / OD Urinary Bladder Wall / OD Uterus / ED Contr. Adrenals / ED Contr. Brain / ED Contr. Breasts / ED Contr. Gallbladder Wall / ED Contr. Heart Wall / ED Contr. Kidneys / ED Contr. LLI Wall / ED Contr. Liver / ED Contr. Lungs / ED Contr. Muscle / ED Contr. Osteogenic Cells / ED Contr. Ovaries / ED Contr. Pancreas / ED Contr. Red Marrow / ED Contr. Skin / ED Contr. Small Intestine / ED Contr. Spleen / ED Contr. Stomach Wall / ED Contr. Thymus / ED Contr. Thyroid / ED Contr. ULI Wall / ED Contr. Urinary Bladder Wall / ED Contr. Uterus: mouse organ harvesting; for OD Adrenals / OD Brain / OD Breasts / OD Gallbladder Wall / OD Heart Wall / OD Kidneys / OD LLI Wall / OD Liver / OD Lungs / OD Muscle / OD Osteogenic Cells / OD Ovaries / OD Pancreas / OD Red Marrow / OD Skin / OD Small Intestine / OD Spleen / OD Stomach Wall / OD Testes / OD Thymus / OD Thyroid / OD Total Body / OD ULI Wall / OD Urinary Bladder Wall / OD Uterus: scaled to human adult male model; for ED Contr. Adrenals / ED Contr. Brain / ED Contr. Breasts / ED Contr. Gallbladder Wall / ED Contr. Heart Wall / ED Contr. Kidneys / ED Contr. LLI Wall / ED Contr. Liver / ED Contr. Lungs / ED Contr. Muscle / ED Contr. Osteogenic Cells / ED Contr. Ovaries / ED Contr. Pancreas / ED Contr. Red Marrow / ED Contr. Skin / ED Contr. Small Intestine / ED Contr. Spleen / ED Contr. Stomach Wall / ED Contr. Thymus / ED Contr. Thyroid / ED Contr. ULI Wall / ED Contr. Urinary Bladder Wall / ED Contr. Uterus / ED ICRP 60 / ED: scaled to human; for ED Contr. Adrenals / ED Contr. Brain / ED Contr. Breasts / ED Contr. Gallbladder Wall / ED Contr. Heart Wall / ED Contr. Kidneys / ED Contr. LLI Wall / ED Contr. Liver / ED Contr. Lungs / ED Contr. Muscle / ED Contr. Osteogenic Cells / ED Contr. Ovaries / ED Contr. Pancreas / ED Contr. Red Marrow / ED Contr. Skin / ED Contr. Small Intestine / ED Contr. Spleen / ED Contr. Stomach Wall / ED Contr. Thymus / ED Contr. Thyroid / ED Contr. ULI Wall / ED Contr. Urinary Bladder Wall / ED Contr. Uterus / ED: ICRP 103 weighting; for ED ICRP 60 / ED: mouse, harvesting; for ED ICRP 60: ICRP 60 weighting
Description: Female CD-1 mice (age: 12 weeks) received an intravenous injection of (R)-(+)-[^18F]fluspidine (0.35 ± 0.08 MBq; weight: 29.8 ± 2.2 g; n = 28) or (S)-(−)-[^18F]fluspidine (0.39 ± 0.05 MBq; weight: 29.3 ± 1.9 g; n = 22). Two to three animals per time point were sacrificed by cervical dislocation at 5, 15, 30, 45, 60, 90, 120, 180, and 240 min. p.i. The brain, heart, lung, stomach, small intestine (SI), large intestine (LI), liver, kidneys, urinary bladder (UB), spleen, thymus, pancreas, adrenals, and ovaries were dissected, weighed, and the accumulated activity quantified in a gamma-counter (WIZARD Automatic Gamma Counter, PerkinElmer, Waltham, MA, USA) to determine the percentage injected activity (dose) per gram of tissue (%ID/g).
In addition, the sampling time p.i. and %ID/g values were scaled proportionately to human magnitude (please see Equations (1) and (2) in Section 4.4) prior to dose estimation with OLINDA/EXM (Vanderbilt University, Nashville, TN, USA, version 1.0).
For human dosimetry estimation from animal biodistribution and PET/MR imaging, animal organ masses and time scale was extrapolated to human magnitudes. At first, the organ-specific animal %ID data were extrapolated to the human scale with the equation (1) %ID/organhuman=%ID/gmouse · morganhuman · mmouse/mhuman with the fraction of the injected activity in the corresponding human organ = %ID/organhuman , the fraction of injected activity per gram animal organ tissue = %ID/gmouse and morganhuman the mass of the corresponding human organ. At second, a time scale extrapolation is needed due to differences in the metabolic rate using the equation (2) thuman=tmouse{mhuman/mmouse}^0.25 including the human time scale = thuman , the animal time scale = tmouse and the ratio of animal and human body weights = mmouse/mhuman .
The human dosimetry estimation was performed with the data extrapolated as well as the genuine human data using OLINDA/EXM software. The time-activity curves were estimated by exponential fitting and calculating the time integral, which equals the number of disintegrations (NODs) per organ during the observation period normalized to 1 Becquerel administered activity dose. […] Therefore, activity data of the urinary bladder was derived from the image for each time point. In contrast, for humans the activity concentration data of the urinary bladder was obtained in a more direct approach. At first, the activity and volume of urine was determined in the last frame of the PET scan before each micturition. Afterwards, the voided urine was collected, weighed, and the activity of three aliquots (assuming 1 mL = 1 g) determined with a gamma counter, and the activity of the whole sample estimated. The difference between imaged and sampled urine activity is equal to the residue of radioactive urine in the urinary bladder. To calculate the NOD in the human urinary bladder, the time-activity curve is integrated using a trapezoidal equation (3) %ID˜UB=1/2∑i=1n−1(%IDi+%IDi+1)(ti+1−ti) with the fraction of injected activity %IDi at the time ti and the cumulated activity of the urinary bladder i.e., the NOD %ID˜UB .
Furthermore, the NODs of the gastric system were calculated following the ICRP GI model (ICRP 30) as implemented in OLINDA 1.0. The NODs obtained either from the EXM module or the trapezoidal equation were transferred to OLINDA. The OD for the chosen hermaphroditic adult male phantom is estimated following the MIRD scheme. The S values are pre-calculated and implemented for the respective phantom in OLINDA. Subsequently, the ED contribution from each organ is calculated by multiplying the ODs with the respective tissue weighting factors as published by the International Commission on Radiological Protection (ICRP 103 [27]) for each organ. […]

SMILES: [18F]CC[C@H]1OC2(CCN(Cc3ccccc3)CC2)c2ccccc21 [(R)-(+)-[^18F]fluspidine]
- binding potential (BPnd), fold higher in comparison to (S)-(−)-[^18F]fluspidine (σ1 receptors): 5- to 10 fold
- OD Adrenals [1]: 18.6 μSv/MBq
- OD Brain [1]: 12.6 μSv/MBq
- OD Breasts [1]: 11.3 μSv/MBq
- OD Gallbladder Wall [1]: 14.0 μSv/MBq
- OD Heart Wall [1]: 22.3 μSv/MBq
- OD Kidneys [1]: 27.6 μSv/MBq
- OD LLI Wall [1]: 16.4 μSv/MBq
- OD Liver [1]: 10.3 μSv/MBq
- OD Lungs [1]: 45.5 μSv/MBq
- OD Muscle [1]: 7.1 μSv/MBq
- OD Osteogenic Cells [1]: 19.1 μSv/MBq
- OD Ovaries [1]: 24.9 μSv/MBq
- OD Pancreas [1]: 21.7 μSv/MBq
- OD Red Marrow [1]: 13.5 μSv/MBq
- OD Skin [1]: 8.7 μSv/MBq
- OD Small Intestine [1]: 25.1 μSv/MBq
- OD Spleen [1]: 17.2 μSv/MBq
- OD Stomach Wall [1]: 14.3 μSv/MBq
- OD Testes [1]: 10.8 μSv/MBq
- OD Thymus [1]: 19.3 μSv/MBq
- OD Thyroid [1]: 11.5 μSv/MBq
- OD Total Body [1]: 12.2 μSv/MBq
- OD ULI Wall [1]: 25.6 μSv/MBq
- OD Urinary Bladder Wall [1]: 20.2 μSv/MBq
- OD Uterus [1]: 14.9 μSv/MBq
- ED Contr. Adrenals [1]: 0.2 μSv/MBq
- ED Contr. Brain [1]: 0.1 μSv/MBq
- ED Contr. Breasts [1]: 1.4 μSv/MBq
- ED Contr. Gallbladder Wall [1]: 0.1 μSv/MBq
- ED Contr. Heart Wall [1]: 0.2 μSv/MBq
- ED Contr. Kidneys [1]: 0.2 μSv/MBq
- ED Contr. LLI Wall [1]: 1.0 μSv/MBq
- ED Contr. Liver [1]: 0.4 μSv/MBq
- ED Contr. Lungs [1]: 5.5 μSv/MBq
- ED Contr. Muscle [1]: 0.1 μSv/MBq
- ED Contr. Osteogenic Cells [1]: 0.2 μSv/MBq
- ED Contr. Ovaries [1]: 2.0 μSv/MBq
- ED Contr. Pancreas [1]: 0.2 μSv/MBq
- ED Contr. Red Marrow [1]: 1.6 μSv/MBq
- ED Contr. Skin [1]: 0.1 μSv/MBq
- ED Contr. Small Intestine [1]: 0.2 μSv/MBq
- ED Contr. Spleen [1]: 0.1 μSv/MBq
- ED Contr. Stomach Wall [1]: 1.7 μSv/MBq
- ED Contr. Thymus [1]: 0.2 μSv/MBq
- ED Contr. Thyroid [1]: 0.5 μSv/MBq
- ED Contr. ULI Wall [1]: 1.5 μSv/MBq
- ED Contr. Urinary Bladder Wall [1]: 0.8 μSv/MBq
- ED Contr. Uterus [1]: 0.1 μSv/MBq
- ED ICRP 60 [1]: 20.1 μSv/MBq
- ED [1]: 18.4 μSv/MBq

SMILES: FCC[C@@H]1OC2(CCN(Cc3ccccc3)CC2)c2ccccc21 [(S)-(−)-[^18F]fluspidine]
- OD Adrenals [1]: 36.0 μSv/MBq
- OD Brain [1]: 12.4 μSv/MBq
- OD Breasts [1]: 11.2 μSv/MBq
- OD Gallbladder Wall [1]: 15.5 μSv/MBq
- OD Heart Wall [1]: 17.9 μSv/MBq
- OD Kidneys [1]: 35.6 μSv/MBq
- OD LLI Wall [1]: 19.0 μSv/MBq
- OD Liver [1]: 12.5 μSv/MBq
- OD Lungs [1]: 30.5 μSv/MBq
- OD Muscle [1]: 7.2 μSv/MBq
- OD Osteogenic Cells [1]: 19.6 μSv/MBq
- OD Ovaries [1]: 17.0 μSv/MBq
- OD Pancreas [1]: 26.2 μSv/MBq
- OD Red Marrow [1]: 13.6 μSv/MBq
- OD Skin [1]: 9.1 μSv/MBq
- OD Small Intestine [1]: 31.9 μSv/MBq
- OD Spleen [1]: 17.6 μSv/MBq
- OD Stomach Wall [1]: 14.8 μSv/MBq
- OD Testes [1]: 11.2 μSv/MBq
- OD Thymus [1]: 12.0 μSv/MBq
- OD Thyroid [1]: 11.7 μSv/MBq
- OD Total Body [1]: 12.5 μSv/MBq
- OD ULI Wall [1]: 33.3 μSv/MBq
- OD Urinary Bladder Wall [1]: 13.9 μSv/MBq
- OD Uterus [1]: 15.9 μSv/MBq
- ED Contr. Adrenals [1]: 0.3 μSv/MBq
- ED Contr. Brain [1]: 0.1 μSv/MBq
- ED Contr. Breasts [1]: 1.3 μSv/MBq
- ED Contr. Gallbladder Wall [1]: 0.1 μSv/MBq
- ED Contr. Heart Wall [1]: 0.2 μSv/MBq
- ED Contr. Kidneys [1]: 0.3 μSv/MBq
- ED Contr. LLI Wall [1]: 1.1 μSv/MBq
- ED Contr. Liver [1]: 0.5 μSv/MBq
- ED Contr. Lungs [1]: 3.7 μSv/MBq
- ED Contr. Muscle [1]: 0.1 μSv/MBq
- ED Contr. Osteogenic Cells [1]: 0.2 μSv/MBq
- ED Contr. Ovaries [1]: 1.4 μSv/MBq
- ED Contr. Pancreas [1]: 0.2 μSv/MBq
- ED Contr. Red Marrow [1]: 1.6 μSv/MBq
- ED Contr. Skin [1]: 0.1 μSv/MBq
- ED Contr. Small Intestine [1]: 0.3 μSv/MBq
- ED Contr. Spleen [1]: 0.2 μSv/MBq
- ED Contr. Stomach Wall [1]: 1.8 μSv/MBq
- ED Contr. Thymus [1]: 0.1 μSv/MBq
- ED Contr. Thyroid [1]: 0.5 μSv/MBq
- ED Contr. ULI Wall [1]: 2.0 μSv/MBq
- ED Contr. Urinary Bladder Wall [1]: 0.6 μSv/MBq
- ED Contr. Uterus [1]: 0.1 μSv/MBq
- ED ICRP 60 [1]: 17.3 μSv/MBq
- ED [1]: 16.7 μSv/MBq
- ED ([1]; listed as (S)-(−)-[^18F]Fluspidine): 16.7 μSv/MBq
